Series [1] relates to ZIKV, strain Brazil/2016/INMI1. Kind of series: ZIKV viral yield reduction assay on Huh-7 cells. The series is classed as cell-based, Zika virus. Particulars: Zika virus; preliminary screening (50, 5, 0.5 μM), Huh-7; read-out: ZIKV/Huh‐7 EC50. The gist of the method:
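Huh-7 cells infected with ZIKV at MOI 1 for 2 h at 37 °C, compounds added right after infection in duplicate at 50, 5 and 0.5 μM. Supernatants taken at 48 h and titrated by plaque assay on VERO E6 under carboxymethyl cellulose with crystal violet staining. % inhibition from PFU/mL versus DMSO-treated control; SI = CC50/EC50.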

Series [2] relates to K-562 (leukemia cell line). Kind of series: NCI-60 single-dose assay. Type of series: cell-based. The settings on record: Homo sapiens, K562, read-out: growth inhibition (GI%) and cytotoxicity (negative values). The essentials: (§1)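 Human cancer lines from nine tumour types in the NCI-60 panel were exposed to one compound dose, and cytotoxic activity was recorded for each line.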

Series [3] has as its system HCC-2998 (colon cancer cell line). Kind of series: NCI-60 single-dose assay. The settings on record: human. Type of series: cell-based, human. The essentials: as §1
Series [4] concerns UACC-257 (melanoma cell line). The series can be described thus: NCI-60 single-dose assay. The settings on record: human. The series is classed as cell-based, human. The essentials:
as §1

Series [5] concerns HL-60(TB) (leukemia cell line). Kind of series: NCI-60 single-dose assay. Type of series: cell-based, human. Particulars: human.
Series [6] deals with HCT-116 (colon cancer cell line). The series can be described thus: NCI-60 single-dose assay. The settings on record: Homo sapiens, HCT-116, read-out: growth inhibition (GI%) and cytotoxicity (negative values). The series is classed as cell-based, human. The gist of the method:
as §1

For series [7], the system named is UACC-62 (melanoma cell line). Kind of series: NCI-60 single-dose assay. Type of series: cell-based, human. The settings on record: human. The gist of the method:
as §1

Series [8] deals with MOLT-4 (leukemia cell line). Kind of series: NCI-60 single-dose assay. Type of series: cell-based, human. The settings on record: Homo sapiens, MOLT-4, read-out: growth inhibition (GI%) and cytotoxicity (negative values). The gist of the method:
as §1

Series [9] deals with LOX IMVI (melanoma cell line). Kind of series: NCI-60 single-dose assay. The series is classed as cell-based, human. The settings on record: human. The gist of the method: as §1
In series [10] the test system is SW-620 (colon cancer cell line). Kind of series: NCI-60 single-dose assay. Type of series: cell-based, human. Particulars: human. The essentials: as §1
The subject of series [11] is RXF 393 (renal cancer cell line). The series can be described thus: NCI-60 single-dose assay. Type of series: cell-based, human. Particulars: Homo sapiens, RXF 393, read-out: growth inhibition (GI%) and cytotoxicity (negative values). The gist of the method: as §1
Series [12] deals with RPMI-8226 (leukemia cell line). The series can be described thus: NCI-60 single-dose assay. Type of series: cell-based, human. The settings on record: human. The essentials:
as §1

Series [13] has as its system SN12C (renal cancer cell line). Kind of series: NCI-60 single-dose assay. The series is classed as cell-based, human. Particulars: Homo sapiens, read-out: growth inhibition (GI%) and cytotoxicity (negative values). The essentials: as §1
The next series has as its system SR (leukemia cell line). Kind of series: NCI-60 single-dose assay. Type of series: cell-based, human. Particulars: Homo sapiens, read-out: growth inhibition (GI%) and cytotoxicity (negative values). The gist of the method: as §1
In series [14] the test system is T-47D (breast cancer cell line). Kind of series: NCI-60 single-dose assay. Particulars: Homo sapiens, T47D, read-out: growth inhibition (GI%) and cytotoxicity (negative values). Type of series: cell-based, human. The gist of the method: as §1
Series [15] has as its system MDA-MB-468 (breast cancer cell line). Kind of series: NCI-60 single-dose assay. The series is classed as cell-based, human. The settings on record: human. The essentials: as §1
The test system of series [16] is HT29 (colon cancer cell line). The series can be described thus: NCI-60 single-dose assay. Particulars: Homo sapiens, HT-29, read-out: growth inhibition (GI%) and cytotoxicity (negative values). The series is classed as cell-based, human. The essentials:
as §1

For series [17], the system named is NCI-H522 (non-small cell lung cancer cell line). Kind of series: NCI-60 single-dose assay. Type of series: cell-based, human. Particulars: Homo sapiens, NCI-H522, read-out: growth inhibition (GI%) and cytotoxicity (negative values). The gist of the method:
as §1

The subject of series [18] is IAV strain A/PR/8/34 (H1N1). Particulars: preliminary screening.
Series [19] deals with SARS-CoV-2 VR PV10734 (strain Milano). The series can be described thus: microbe, parasite or virus in culture. Type of series: cell-based. Particulars: Severe acute respiratory syndrome coronavirus 2; preliminary screening (50, 5, 0.5 μM), Vero TMPRSS; read-out: SARS‐CoV‐2/Vero TMPRSS EC50.
Series [20] in a line: Cytotoxicity on uninfected Huh-7 cells (WST-8, crystal violet). The settings on record: human, uninfected Huh-7 cells. (In general: Tetrazolium assays rely on reduction of a dye to a coloured formazan, in cell work by metabolically active cells.)
The nature of series [21]: in vitro. The settings on record: dog.
Series [22] in a line: in vitro. The settings on record: African green monkey.
The subject of series [23] is IAV strain A/PR/8/34 (H1N1). The series can be described thus: microbe, parasite or virus in culture. The settings on record: Influenza A virus, MDCK, read-out: IAV/MDCK EC50.

On to `O=C(NCCCN1CCN(Cc2ccccc2)CC1)c1c(Cl)[nH]c2c1CCCc1ccccc1-2` [Compound 20, N-(3-(4-Benzylpiperazin-1-yl)propyl)-2-chloro-1,4,5,6-tetrahydrobenzo[6,7]cyclohepta[1,2-b]pyrrole-3-carboxamide], for which the results for the EC50 in series [1], in series [19] and in series [23] were 4.74 µM, 17.7 µM and 17.7 µM, respectively. Besides, the inhibition – broadly, the drop in the measured response relative to a control, in per cent – at 10 µM is below 60% in series [2]; 95.5% in [6]; below 60% in series [8]; 78.2% in [11]; below 60% in [13]; 99.4% in the series with SR (leukemia cell line). The inhibition at 10 µM in series [14] stood at 78.5%; in [16], 94.7%; in series [17], 92.2%. Besides, the “growth inhibition (GI%) and cytotoxicity (negative values)” value in series [3] is on record as −91.84%; in [4] it was −58.02%; in [5], −23.10%; in [7] it was −59.22%; in [9] it was −69.19%; in [10], −40.23%. Further, the results for the “growth inhibition (GI%) and cytotoxicity (negative values)” value in [12] and in series [15] were −1.74% and −29.55%, respectively. The “IAV/MDCK SI” value in series [18] is on record as 0.35. Moreover, in series [20], the CC50 at 48 h was determined as 6.23 µM. The CC50 in “in vitro [21]” is 6.12 µM. The molecule also registered a CC50 at 24 h in the series “in vitro [22]” of 15.4 µM.

The values above are taken from article PMC12566046, “Arylpiperazinyl-Benzocycloheptapyrrole-Carboxamides Endowed with Dual Anticancer and Antiviral Activities” (Molecules, 2025).
